Results published in patent US20230203041A1, “ANTAGONISTS OF THE ADENOSINE A2A RECEPTOR” (AdoRx Therapeutics Limited, priority 2020, published 2023).
Counter-ions that a name gives are not always drawn.

What was measured:
[1] = biological target: T1, human Adenosine A3 receptor (Homo sapiens, UniProt P0DMS8); experiment: Adenosine receptor TR-FRET binding assay (CA200645 displacement), A3
T1 sequence (P0DMS8 1-318): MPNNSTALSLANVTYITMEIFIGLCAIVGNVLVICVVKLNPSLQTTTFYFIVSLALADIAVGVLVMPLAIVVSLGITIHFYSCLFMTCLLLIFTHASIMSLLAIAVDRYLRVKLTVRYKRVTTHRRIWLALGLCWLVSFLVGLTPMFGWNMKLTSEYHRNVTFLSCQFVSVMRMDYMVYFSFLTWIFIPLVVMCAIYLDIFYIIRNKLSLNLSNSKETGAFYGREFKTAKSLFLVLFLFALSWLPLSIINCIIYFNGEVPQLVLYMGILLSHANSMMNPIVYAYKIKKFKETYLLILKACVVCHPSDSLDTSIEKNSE

[2] = biological target: T2, human Adenosine A2b receptor (Homo sapiens, UniProt P29275); experiment: Adenosine receptor TR-FRET binding assay (CA200645 displacement), A2b; conditions: 30 nM CA200645, CHO cell membranes, 2 hours at room temperature
T2 construct: expressed in transfected cells; host or cells: CHO cell membranes
T2 sequence (P29275 1-332): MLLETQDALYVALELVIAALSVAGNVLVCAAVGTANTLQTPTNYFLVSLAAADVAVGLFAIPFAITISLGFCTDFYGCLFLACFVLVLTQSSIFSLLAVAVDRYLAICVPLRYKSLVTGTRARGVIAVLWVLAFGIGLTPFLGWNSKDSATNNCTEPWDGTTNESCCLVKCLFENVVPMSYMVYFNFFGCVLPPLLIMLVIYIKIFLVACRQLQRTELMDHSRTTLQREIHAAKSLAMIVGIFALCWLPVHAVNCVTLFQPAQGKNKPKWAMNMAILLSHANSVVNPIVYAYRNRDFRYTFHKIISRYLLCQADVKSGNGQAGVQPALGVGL
Procedure: All FRET binding experiments were conducted at room temperature in white 384-well plates, in assay binding buffer containing 1×LabMed (Cisbio, France), 100 μg/mL saponin, 1% DMSO and 0.02% pluronic acid. Binding of the fluorescently labelled Adenosine receptor antagonist XAC (CA200645, FRET acceptor) to terbium-labelled A1, A2a, A2b and A3 adenosine receptors (FRET donors) was detected by time-resolved FRET due to the close proximity of the donor and acceptor in a binding event. To investigate the ability of unlabelled test compounds to bind to Adenosine A1, A2a, A2b and A3 receptors, dose response curves were constructed that determined the ability of a range of concentrations to inhibit the binding of 30 nM CA200645 to the A2b receptor and 100 nM CA200645 to the A1, A2a, and A3 receptor.
Serial dilution (1:3 dilutions) of test compounds in neat DMSO and transfer of a 400 nL sample of test compound into the assay plate was carried out using the Mosquito (TTP Labtech, UK). The compound samples were incubated for 2 hours at room temperature with a fixed concentration of CA200645 defined for each receptor (see above) and CHO cell membranes containing the human Adenosine A1 (0.5 μg/well), A2a (0.3 μg/well), A2b (1 μg/well) or A3 (1 μg/well) receptor in 40 μL of assay buffer. Total and non-specific binding of CA200645 was determined in the absence and presence of 10 μM XAC, respectively. Following 2 hours incubation, the level of CA200645 binding was detected on a Pherastar FSX (BMG Labtech, Germany) using standard TR-FRET settings. The terbium donor was excited with three laser flashes at a wavelength of 337 nm, and donor and acceptor emission was detected at 620 nm and 665 nm wavelengths, respectively. FRET ratios were obtained by multiplying the acceptor/donor ratio value by 10,000. Specific binding was determined by subtracting the non-specific binding FRET ratio from the total binding FRET ratio. Compound IC50 curves were analysed using GraphPad Prism 7.0 (GraphPad, USA) and Ki affinity values were determined from the obtained IC50 values using the method of Cheng and Prusoff.

[3] = biological target: T3, human Adenosine A2a receptor (Homo sapiens, UniProt P29274); experiment: Adenosine receptor TR-FRET binding assay (CA200645 displacement), A2a; conditions: 100 nM CA200645, CHO cell membranes, 2 hours at room temperature
T3 construct: expressed in transfected cells; host or cells: CHO cell membranes
T3 sequence (P29274 whole entry): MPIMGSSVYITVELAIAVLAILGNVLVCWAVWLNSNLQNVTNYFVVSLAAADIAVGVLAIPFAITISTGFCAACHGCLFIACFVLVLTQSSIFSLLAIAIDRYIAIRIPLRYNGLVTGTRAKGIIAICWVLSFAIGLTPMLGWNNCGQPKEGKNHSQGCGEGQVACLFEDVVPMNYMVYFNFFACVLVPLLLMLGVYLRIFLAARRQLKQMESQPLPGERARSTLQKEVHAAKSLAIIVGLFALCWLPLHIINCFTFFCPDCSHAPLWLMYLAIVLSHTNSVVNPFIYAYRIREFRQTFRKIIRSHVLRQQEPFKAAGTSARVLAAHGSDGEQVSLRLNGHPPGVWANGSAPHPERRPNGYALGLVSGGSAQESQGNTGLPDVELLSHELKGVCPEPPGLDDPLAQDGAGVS

[4] = biological target: T4, human Adenosine A1 receptor (Homo sapiens, UniProt P30542); experiment: Adenosine receptor TR-FRET binding assay (CA200645 displacement), A1
T4 sequence (P30542 1-326): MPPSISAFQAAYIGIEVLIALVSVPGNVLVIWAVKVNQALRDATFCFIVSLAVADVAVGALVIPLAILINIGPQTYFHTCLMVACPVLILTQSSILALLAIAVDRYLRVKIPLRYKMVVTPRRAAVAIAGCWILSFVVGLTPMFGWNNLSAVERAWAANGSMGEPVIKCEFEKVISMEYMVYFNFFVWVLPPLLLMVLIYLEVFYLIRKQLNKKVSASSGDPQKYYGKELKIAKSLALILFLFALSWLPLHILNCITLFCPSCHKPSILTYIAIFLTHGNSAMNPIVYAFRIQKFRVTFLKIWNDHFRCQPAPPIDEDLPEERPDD

| SMILES | Ki [1] [µM] | Ki [2] [µM] | Ki [3] [µM] | Ki [4] [µM] |
| --- | --- | --- | --- | --- |
| Cc1cc(-c2c(-c3cccc(C#N)c3)nn3ccc(C(C)(C)O)nc23)cc(Cl)n1 [Example 8, 3-[3-(2-Chloro-6-methyl-4-pyridyl)-5-(1-hydroxy-1-methyl-ethyl)pyrazolo[1,5-a]pyrimidin-2-yl]benzonitrile] | > 1 | 0.041 | 0.0099 | 0.291 |
| Cc1cc(-c2c(-c3cccc(C#N)c3)nn3ccc(NS(C)(=O)=O)nc23)cc(Cl)n1 [Example 16, N-[3-(2-Chloro-6-methyl-4-pyridyl)-2-(3-cyanophenyl)pyrazolo[1,5-a]pyrimidin-5-yl]methanesulfonamide] | 1.18 | 0.001 | 0.0137 | 0.303 |
| Cc1cc(-c2c(-c3cccc(C#N)c3)nn3ccc(N[C@@H](C)C(=O)O)nc23)cc(Cl)n1 [Example 17, (2S)-2-[[3-(2-Chloro-6-methyl-4-pyridyl)-2-(3-cyanophenyl)pyrazolo[1,5-a]pyrimidin-5-yl]amino]propanoic acid] | > 1 | 0.101 | 0.0179 | 0.136 |
| Cc1cc(-c2c(-c3cccc(C#N)c3)nn3ccc(O[C@@H]4CCNC4)nc23)cc(Cl)n1 [Example 18, 3-[3-(2-Chloro-6-methyl-4-pyridyl)-5-[(3R)-pyrrolidin-3-yl]oxy-pyrazolo[1,5-a]pyrimidin-2-yl]benzonitrile formate] | > 1 | 0.016 | 0.0097 | 0.054 |
| Cc1cc(-c2c(-c3cccc(C#N)c3)nn3ccc(CN4CCOCC4)nc23)cc(Cl)n1 [Example 20, 3-[3-(2-Chloro-6-methyl-4-pyridyl)-5-(morpholinomethyl)pyrazolo[1,5-a]pyrimidin-2-yl]benzonitrile] | > 1 | 0.022 | 0.0116 | 0.573 |
| Cc1cc(-c2c(-c3cccc(C#N)c3)nn3ccc(CN4CCNCC4)nc23)cc(C)n1 [Example 20.1, 3-[3-(2,6-Dimethyl-4-pyridyl)-5-(piperazin-1-ylmethyl)pyrazolo[1,5-a]pyrimidin-2-yl]benzonitrile trifluoroacetate] | > 1 | 0.626 | 0.116 | 2.53 |
| Cc1cc(-c2c(-c3cccc(C#N)c3)nn3ccc(CN)nc23)cc(Cl)n1 [Example 21, 3-[5-(Aminomethyl)-3-(2-chloro-6-methyl-4-pyridyl)pyrazolo[1,5-a]pyrimidin-2-yl]benzonitrile] | > 1 | 0.102 | 0.0815 | 2.44 |
| Cc1cc(-c2c(-c3cccc(C#N)c3)nn3ccc(CCC(C)(C)O)nc23)cc(Cl)n1 [Example 22, 3-[3-(2-Chloro-6-methyl-4-pyridyl)-5-(3-hydroxy-3-methyl-butyl)pyrazolo[1,5-a]pyrimidin-2-yl]benzonitrile] | > 1 | 0.034 | 0.001 | 0.141 |
| Cc1cc(-c2c(-c3cccc(C#N)c3)nn3ccc(N(C)C)nc23)cc(Cl)n1 [Example 23.4] | 1.98 | 0.09 | 0.0102 | 0.163 |
| Cc1cc(-c2c(-c3cccc(C#N)c3)nn3ccc(O[C@@H]4CCCNC4)nc23)cc(Cl)n1 [Example 24.1, 3-[3-(2-Chloro-6-methyl-4-pyridyl)-5-[[(3R)-3-piperidyl]oxy]pyrazolo[1,5-a]pyrimidin-2-yl]benzonitrile] | 1.65 | 0.029 | 0.0033 | 0.009 |
| Cc1cc(-c2c(-c3cccc(C#N)c3)nn3ccc(N)nc23)cnc1N [Example 26, 3-[5-Amino-3-(6-amino-5-methyl-3-pyridyl)pyrazolo[1,5-a]pyrimidin-2-yl]benzonitrile] | 2.43 | 0.409 | 0.147 | 0.006 |
| Cc1cc(-c2c(-c3cccc(C#N)c3)nn3ccc(N)nc23)cc(F)n1 [Example 26.4, 3-[5-Amino-3-(2-fluoro-6-methyl-4-pyridyl)pyrazolo[1,5-a]pyrimidin-2-yl]benzonitrile] | 0.578 | 0.016 | 0.0101 | 0.006 |
| Cn1cc(-c2c(-c3cccc(C#N)c3)nn3ccc(N)nc23)cn1 [Example 26.5, 3-[5-Amino-3-(1-methylpyrazol-4-yl)pyrazolo[1,5-a]pyrimidin-2-yl]benzonitrile] | 0.749 | 1.2 | 0.105 | 0.089 |
| Cc1cc(-c2c(-c3cccc(C#N)c3)nn3ccc(N)nc23)cc(C)[n+]1[O-] [Example 27, 3-[5-Amino-3-(2,6-dimethyl-1-oxido-pyridin-1-ium-4-yl)pyrazolo[1,5-a]pyrimidin-2-yl]benzonitrile] | > 1 | 0.002 | 0.0018 | 0.004 |
| Cc1cc(-c2c(-c3cccc(C#N)c3)nn3ccc(N)nc23)cc(C(N)=O)n1 [Example 27.2, 4-[5-Amino-2-(3-cyanophenyl)pyrazolo[1,5-a]pyrimidin-3-yl]-6-methyl-pyridine-2-carboxamide] | > 1 | 0.039 | 0.0133 | 0.017 |
| CC(=O)Nc1cc(-c2c(-c3cccc(C#N)c3)nn3ccc(N)nc23)cc(C)n1 [Example 27.4, N-[4-[5-Amino-2-(3-cyanophenyl)pyrazolo[1,5-a]pyrimidin-3-yl]-6-methyl-2-pyridyl]acetamide] | > 1 | 0.519 | 0.0541 | 0.583 |
| Cc1cc(-c2c(-c3cccc(C#N)c3)nn3ccc(N)nc23)cc2ncnn12 [Example 27.5, 3-[5-Amino-3-(5-methyl-[1,2,4]triazolo[1,5-a]pyridin-7-yl)pyrazolo[1,5-a]pyrimidin-2-yl]benzonitrile] | > 1 | 0.108 | 0.36 | 0.046 |
| Cc1cc(-c2c(-c3cccc(C#N)c3)nn3ccc(N)nc23)cc(C(=O)O)n1 [Example 28, 4-[5-Amino-2-(3-cyanophenyl)pyrazolo[1,5-a]pyrimidin-3-yl]-6-methyl-pyridine-2-carboxylic acid] | > 1 | 2.46 | 0.359 | 1.12 |
| Cc1cc(-c2c(-c3cccc(C#N)c3)nn3ccc(N)nc23)cc(N(C)C)n1 [Example 29, 3-[5-Amino-3-[2-(dimethylamino)-6-methyl-4-pyridyl]pyrazolo[1,5-a]pyrimidin-2-yl]benzonitrile] | > 1 | 0.056 | 0.0152 | 0.144 |
| Cc1cc(-c2c(-c3cccc(C#N)c3)nn3ccc(NC(=O)NCC(C)(C)O)nc23)cc(Cl)n1 [Example 30.1, 1-[3-(2-Chloro-6-methyl-4-pyridyl)-2-(3-cyanophenyl)pyrazolo[1,5-a]pyrimidin-5-yl]-3-(2-hydroxy-2-methyl-propyl)urea] | > 1 | 0.005 | 0.0013 | 0.026 |
| CCN1CCC(NC(=O)Nc2ccn3nc(-c4cccc(C#N)c4)c(-c4cc(C)nc(Cl)c4)c3n2)CC1 [Example 30.2, 1-[3-(2-Chloro-6-methyl-4-pyridyl)-2-(3-cyanophenyl)pyrazolo[1,5-a]pyrimidin-5-yl]-3-(1-ethyl-4-piperidyl)urea] | > 1 | 0.049 | 0.0315 | 0.13 |
| Cc1cc(-c2c(-c3cccc(C#N)c3)nn3ccc(NC(=O)N4CC5(COC5)C4)nc23)cc(C)n1 [Example 30.4, N-[2-(3-Cyanophenyl)-3-(2,6-dimethyl-4-pyridyl)pyrazolo[1,5-a]pyrimidin-5-yl]-2-oxa-6-azaspiro[3.3]heptane-6-carboxamide] | > 1 | 0.073 | 0.0078 | 0.103 |
| Cc1cc(-c2c(-c3cccc(C#N)c3)nn3ccc(NC(=O)N4CCC(C)(C#N)CC4)nc23)cc(C)n1 [Example 30.5, 4-Cyano-N-[2-(3-cyanophenyl)-3-(2,6-dimethyl-4-pyridyl)pyrazolo[1,5-a]pyrimidin-5-yl]-4-methyl-piperidine-1-carboxamide] | > 1 | 0.028 | 0.0084 | 0.262 |
